From US10870876B2, “Method for detecting a presence or absence of at least one first zone of inhibition” (BIOMÉRIEUX, priority 2015, dated 2020) come the findings set out here.

What all share (format): cell-based
The subject of assay [1] is Escherichia coli ATCC 35218. The assay is described as follows: Etest strip MIC, conventional method by flooding of the medium. The arrangement: key: R = resistant. As to the method: (§1) Another method for detecting sensitivity to antibiotics uses an antibiotic gradient deposited on an agar medium. For this purpose, paper or plastic strips are impregnated with a concentration gradient of antibiotic. The strips soaked in this way are graduated so as to indicate the antibiotic concentration values present along the strip. One or more strips may be placed on a Mueller-Hinton agar, inoculated beforehand in the same way as the above method. After incubation, an ovoid area of inhibition of microbial growth around each strip appears if the microorganism present in the sample is sensitive to the antibiotic contained in the strip. It is thus possible to deduce a minimum inhibitory concentration (MIC) for microbial growth. The minimum concentration of the antimicrobial agent which makes it possible to inhibit the growth of the microorganism which is generally retained is thus the value of the concentration which can be read on the graduation directly below the point of contact between the zone of inhibition and the long edge of the strip. In other words, the MIC is the concentration visible at the limit of the zone of inhibition, at the boundary between the zone of growth of the microorganisms and the zone of non-growth. More particularly, the MIC can be read by noting the point at which the ovoid area of the zone of inhibition intersects the strip, and by noting the corresponding graduation.
(§2) According to a first experiment of this example, an inoculum of a strain of Escherichia coli ATCC 35218 (American Type Culture Collection) having a concentration of 0.5 McFarland is thus deposited in droplets along four Etest® strips (bioMérieux), each deposited on a Mueller Hinton E agar culture medium (bioMérieux). The strips contain respectively a concentration gradient of gentamicin, tetracycline, ampicillin/sulbactam, ampicillin. In the same manner, an inoculum of a strain of Escherichia coli ATCC 25922 having a concentration of 0.5 McFarland is deposited in droplets along four Etest® strips (bioMérieux), each deposited on a Mueller Hinton E agar culture medium (bioMérieux). The strips also contain a concentration gradient of gentamicin, tetracycline, ampicillin/sulbactam, ampicillin.
(§3) The values are given in μg/ml at different incubation times. The inhibition values for the flooding method are measured from images obtained by a shadowgraphy capture device as described above. The inhibition values for the method according to the invention are measured from images obtained by a shadowgraphy capture device at 5 hours, and visually at 7 hours.

In assay [2] the test system is Escherichia coli ATCC 35218. Description: Etest strip MIC, deposition of the sample in droplets along the strip. Also noted: key to minimum inhibitory concentration / MIC: R = resistant.
Text: (§4) FIGS. 8a to 8d and 9a to 9d illustrate this second example of implementation of the invention. According to FIG. 8a, a sample 1 is deposited in the form of a series of droplets, along an axis parallel to the long edge of a strip 3 containing a concentration gradient of chemical agent. The strip 3 comprises graduations of concentrations of chemical agent 13, making it possible to deduce a minimum inhibitory concentration of chemical agent. An example of such a strip is sold by the applicant under the trade name Etest®. According to the FIG. 8b, a strip 3 containing a chemical agent 5 is deposited on a culture medium 2 contained in a Petri dish 4 (for example a Petri dish with a diameter greater than or equal to 9 cm). The detail B in FIG. 8b is visible in FIG. 8c. A sample 1 is deposited in the form of a series of droplets in a deposition zone 8 along an axis 7 parallel to the long edge of the strip 3. In this example, 13 nanoliter drops are deposited by a Pipejet P9 Nanodispenser pipette sold by the company biofluidix and mounted on a robotic arm. The detail C in FIG. 8c is visible in FIG. 8d. 50 droplets are thus deposited along the axis 7 with an interval P of 800 μm. Each droplet covers a surface area of approximately 1 mm^2.
as §2
(§5) Fifty droplets, each with a volume of 13 nanoliters and spaced apart by 800 μm, are deposited along each strip. As a function of the concentration of 0.5 McFarland, it is thus estimated that approximately 2000 bacteria are present in each droplet. The eight culture media prepared in this way are then incubated and monitored periodically in order to determine the presence or the absence of a zone of inhibition and/or of growth of the microorganisms.
FIGS. 9a to 9d illustrate a plan view of the four media in which the sample of Escherichia coli ATCC 35218 was deposited. FIGS. 9a to 9d are obtained by means of a shadowgraphy capture device as presented in relation to FIG. 5. FIG. 9a presents a view after 5 hours of incubation of the sample in the presence of gentamicin. […] A minimum inhibitory concentration value is then obtained at the intersection between the straight line 14 and the long edge of the strip. A minimum inhibitory concentration (MIC) of 2 μg/ml is thus determined.
Advantageously, a straight line or an arc 15 delimiting the boundary of the zone of growth of microorganisms and the zone of inhibition may be sought, this straight line not necessarily being perpendicular to the long edge and thus reproducing said boundary more faithfully. This straight line or this arc corresponds to a portion of the ovoid area of inhibition observed with conventional inoculation methods and therefore enables better estimation of the MIC. In the case in which a straight line or an arc 15 is sought, the minimum inhibitory concentration may be obtained by tracing a line perpendicular to the long edge of the strip, crossing the point of intersection between the straight line 15 and the axis of deposition of the sample 7, then by seeking the graduation corresponding to this perpendicular line on the strip. […]

Assay [3] deals with Escherichia coli ATCC 25922. The assay is described as follows: Etest strip MIC, conventional method by flooding of the medium. Particulars: for MIC: Escherichia coli, ATCC25922, ATCC 25922, 0.5 McFarland, read-out: minimum inhibitory concentration; for minimum inhibitory concentration: ATCC 25922, 0.5 McFarland. As to the method: as §1, §2, §3
Assay [4] relates to Escherichia coli ATCC 25922. Description: Etest strip MIC, deposition of the sample in droplets along the strip. The following applies: for MIC: Escherichia coli, ATCC25922, ATCC 25922, 0.5 McFarland, read-out: minimum inhibitory concentration; for minimum inhibitory concentration: ATCC 25922, 0.5 McFarland.
Text: as §4, §2, §5
The minimum inhibitory concentration results obtained for the strains of Escherichia coli ATCC 35218 and also the strains of Escherichia coli ATCC 25922 are compared with the conventional method by flooding of the medium in table 1 below. The values are given in μg/ml at different incubation times. The inhibition values for the flooding method are measured from images obtained by a shadowgraphy capture device as described above. The inhibition values for the method according to the invention are measured from images obtained by a shadowgraphy capture device at 5 hours, and visually at 7 hours.

[5] abbreviates: Flooding, ATCC 35218, 0.5 McFarland, incubation time 6 H.
Setting [6] is: Flooding, ATCC 35218, 0.5 McFarland, incubation time 8 H.
Where [7] appears, read: Table 2, flooding, ATCC 35218, 28 H.
The mark [8] stands for this setting: Deposition in droplets, ATCC 35218, 0.5 McFarland, incubation time 5 H (shadowgraphy).
Setting [9] is: Deposition in droplets, ATCC 35218, 0.5 McFarland, incubation time 7 H (visual).
Setting [10] is: Escherichia coli, ATCC35218, droplets of 13 nanoliters, ATCC 35218 at 0.5 McFarland, after 5 hours of incubation, shadowgraphy (FIGS. 9a-9d), read-out: minimum inhibitory concentration (MIC).
[11] abbreviates: Table 2, droplet (replicate 1 where replicated), ATCC 35218, 0.5 McF, 5 H.
[12] abbreviates: Table 2, droplet (replicate 1 where replicated), ATCC 35218, 0.5 McF, 7 H.
[13] abbreviates: incubation time 5 H (shadowgraphy).

Values after ≈ are worked out from the molar mass of the structure shown.

On to `CC1(C)S[C@@H]2[C@H](NC(=O)[C@H](N)c3ccccc3)C(=O)N2[C@H]1C(=O)O` [Ampicillin, ampicillin], for which the minimum inhibitory concentration entry in assay [1] (setting [5]) is “R”; in assay [1] (setting [6]), “R”; in assay [1] (Flooding, ATCC 35218, 0.5 McFarland, incubation time 18 H) it was “R”; in assay [2] (setting [8]), “R”; in assay [2] (setting [9]) it was “R”. In addition, the MIC result was “R” in assay [1] (setting [7]); over 256 µg/mL in assay [2] (setting [10]); “R” in assay [2] (setting [11]); “R” in assay [2] (setting [12]); 3.43 µg/mL (≈ 9.82 µM) in assay [3] (incubation time 6 H); 5.21 µg/mL (≈ 14.9 µM) in assay [3] (incubation time 8 H). In addition, the values for the MIC in assay [3] (incubation time 18 H), in assay [4] (setting [13]) and in assay [4] (incubation time 7 H (visual)) were 5.69 µg/mL (≈ 16.3 µM), 8 µg/mL (≈ 22.9 µM) and 8 µg/mL (≈ 22.9 µM), respectively.
`CN(C)[C@@H]1C(O)=C(C(N)=O)C(=O)[C@@]2(O)C(O)=C3C(=O)c4c(O)cccc4[C@@](C)(O)[C@H]3C[C@@H]12` [Tetracycline, tetracycline]: the MIC in assay [1] (Escherichia coli, ATCC35218, Flooding, ATCC 35218, 0.5 McFarland, incubation time 4 H, read-out: minimum inhibitory concentration) is 0.44 µg/mL (≈ 0.99 µM); in assay [1] (Escherichia coli, ATCC35218, Flooding, ATCC 35218, 0.5 McFarland, incubation time 5 H, read-out: minimum inhibitory concentration) it was 0.86 µg/mL (≈ 1.94 µM); in assay [1] (Escherichia coli, ATCC35218, Flooding, ATCC 35218, 0.5 McFarland, incubation time 6 H, read-out: minimum inhibitory concentration) it was 0.96 µg/mL (≈ 2.16 µM); in assay [1] (Escherichia coli, ATCC35218, Flooding, ATCC 35218, 0.5 McFarland, incubation time 8 H, read-out: minimum inhibitory concentration), 1.12 µg/mL (≈ 2.51 µM); in assay [1] (Escherichia coli, ATCC35218, Flooding, ATCC 35218, 0.5 McFarland, incubation time 24 H, read-out: minimum inhibitory concentration), 2.3 µg/mL (≈ 5.18 µM); in assay [1] (Escherichia coli, ATCC35218, Table 2, flooding, ATCC 35218, 4 H, read-out: MIC), 0.44 µg/mL (≈ 0.99 µM). The MIC in assay [1] (Escherichia coli, ATCC35218, Table 2, flooding, ATCC 35218, 5 H, read-out: MIC) worked out at 0.86 µg/mL (≈ 1.94 µM); in assay [1] (Escherichia coli, ATCC35218, Table 2, flooding, ATCC 35218, 8 H, read-out: MIC), 1.12 µg/mL (≈ 2.51 µM); in assay [1] (Escherichia coli, ATCC35218, Table 2, flooding, ATCC 35218, 28 H, read-out: MIC), 2.3 µg/mL (≈ 5.18 µM); in assay [1] (Escherichia coli, ATCC35218, Table 2, flooding, ATCC 35218, column 4 headed 8 H (between 5 H and 7 H), read-out: MIC) it was 0.96 µg/mL (≈ 2.16 µM); in assay [2] (Escherichia coli, ATCC35218, Deposition in droplets, ATCC 35218, 0.5 McFarland, incubation time 5 H (shadowgraphy), read-out: minimum inhibitory concentration), 1.5 µg/mL (≈ 3.38 µM); in assay [2] (Escherichia coli, ATCC35218, Deposition in droplets, ATCC 35218, 0.5 McFarland, incubation time 7 H (visual), read-out: minimum inhibitory concentration) it was 2 µg/mL (≈ 4.5 µM). Also, the MIC in assay [2] (Escherichia coli, ATCC35218, Table 2, droplet (replicate 1 where replicated), ATCC 35218, 0.5 McF, 5 H, read-out: MIC) is 1.5 µg/mL (≈ 3.38 µM); in assay [2] (Escherichia coli, ATCC35218, Table 2, droplet (replicate 1 where replicated), ATCC 35218, 0.5 McF, 7 H, read-out: MIC), 2 µg/mL (≈ 4.5 µM); in assay [2] (setting [10]), 1.5 µg/mL (≈ 3.38 µM); in assay [3] (incubation time 4 H) it was 0.3 µg/mL (≈ 0.675 µM); in assay [3] (incubation time 5 H), 0.6 µg/mL (≈ 1.35 µM); in assay [3] (incubation time 6 H) it was 0.66 µg/mL (≈ 1.49 µM). The MIC in assay [3] (incubation time 8 H) is 0.86 µg/mL (≈ 1.94 µM); in assay [3] (incubation time 24 H), 1.77 µg/mL (≈ 3.98 µM); in assay [4] (setting [13]), 1.5 µg/mL (≈ 3.38 µM); in assay [4] (incubation time 7 H (visual)), 2 µg/mL (≈ 4.5 µM).
Regarding gentamicin, the minimum inhibitory concentration in assay [1] (Flooding, ATCC 35218, 0.5 McFarland, incubation time 4 H) was 0.96 µg/mL; in assay [1] (Flooding, ATCC 35218, 0.5 McFarland, incubation time 5 H) it was 1.14 µg/mL; in assay [1] (setting [5]) it was 1.17 µg/mL; in assay [1] (setting [6]), 1.17 µg/mL; in assay [1] (Flooding, ATCC 35218, 0.5 McFarland, incubation time 24 H), 1.06 µg/mL; in assay [2] (setting [8]), 2 µg/mL. In addition, the minimum inhibitory concentration in assay [2] (setting [9]) amounted to 2 µg/mL; in assay [3] (incubation time 4 H), 1.74 µg/mL; in assay [3] (incubation time 5 H) it was 1.51 µg/mL; in assay [3] (incubation time 6 H) it was 1.75 µg/mL; in assay [3] (incubation time 8 H) it was 1.82 µg/mL; in assay [3] (incubation time 24 H), 1.54 µg/mL. Besides, the minimum inhibitory concentration in assay [4] (setting [13]) and in assay [4] (incubation time 7 H (visual)) was 2 µg/mL in each case. Also, the MIC in assay [1] (Table 2, flooding, ATCC 35218, 4 H) was 0.96 µg/mL; in assay [1] (Table 2, flooding, ATCC 35218, 5 H) it was 1.14 µg/mL; in assay [1] (setting [7]), 1.06 µg/mL; in assay [2] (setting [11]) it was 2 µg/mL; in assay [2] (setting [12]), 2 µg/mL. Further, the “minimum inhibitory concentration (MIC)” value in assay [2] (droplets of 13 nanoliters, ATCC 35218 at 0.5 McFarland, after 5 hours of incubation, shadowgraphy (FIGS. 9a-9d)) worked out at 2 µg/mL.
